As usually defined, the inhibition is how much of the control response was suppressed. A low value points to little suppression. The term IC50 denotes the point on the concentration scale where inhibition reaches its midpoint. A lower IC50 goes with higher potency.

In one assay the target is T1, Beta-secretase 1 (Homo sapiens, UniProt P56817). Briefly: Inhibition of human BACE1 using HiLyte Fluo488/QXL-520 peptide substrate at 10 uM by fluorescence assay.
T1 sequence (P56817 whole entry): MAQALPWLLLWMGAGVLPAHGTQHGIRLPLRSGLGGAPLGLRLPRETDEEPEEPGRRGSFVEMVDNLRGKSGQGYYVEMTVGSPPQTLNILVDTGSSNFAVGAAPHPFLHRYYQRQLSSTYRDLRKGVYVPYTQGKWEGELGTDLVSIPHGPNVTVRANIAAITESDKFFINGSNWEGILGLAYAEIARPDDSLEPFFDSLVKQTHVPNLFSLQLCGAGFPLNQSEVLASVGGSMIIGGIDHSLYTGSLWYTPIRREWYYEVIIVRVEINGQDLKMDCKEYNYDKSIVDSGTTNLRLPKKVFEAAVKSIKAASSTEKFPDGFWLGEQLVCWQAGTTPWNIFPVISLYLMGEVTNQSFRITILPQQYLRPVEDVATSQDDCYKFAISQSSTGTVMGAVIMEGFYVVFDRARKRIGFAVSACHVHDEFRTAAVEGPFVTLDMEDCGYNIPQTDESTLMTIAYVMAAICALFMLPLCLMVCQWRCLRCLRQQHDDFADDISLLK
Compound `COC(=O)[C@H]1OCC(=S)N[C@@H]1c1ccc(OC)cc1` showed an inhibition of 40%.
The same measure, in the same setting: in the case of `Cc1ccc([C@H]2NC(=N)CO[C@@H]2C(N)=O)cc1` it was 14%; in that of `COc1ccc([C@H]2NC(=N)CO[C@@H]2C(N)=O)cc1OC`, 10%; in that of `COC(=O)[C@H]1OCC(=S)N[C@@H]1c1ccc(OC)c(OC)c1`, 24%.
For the compound `COc1ccc([C@H]2NC(=N)CO[C@@H]2C(N)=O)cc1Br`, the inhibition turned out to be 17%.
In turn, `COC(=O)[C@H]1OCC(=S)N[C@@H]1c1ccc(C)cc1` displayed an inhibition of 19%.
In turn, `COc1ccc([C@H]2NC(=N)CO[C@@H]2C(N)=O)cc1` had an inhibition of 27%.
Still for that read-out and setting: the same measure for `COC(=O)[C@H]1OCC(=S)N[C@@H]1c1ccc(OC)c(Br)c1`: 26%.

The next assay deals with T1, Beta-secretase 1. Briefly: Inhibition of human BACE1 using HiLyte Fluo488/QXL-520 peptide substrate by fluorescence assay.
For `COC(=O)[C@H]1OCC(=S)N[C@@H]1c1ccc(OC)cc1`, half-maximal inhibition (IC50) required 5.7 µM.

Source of the values: ChEMBL document CHEMBL4622858, “Synthesis of morpholine derivatives using the Castagnoli-Cushman reaction as BACE1 inhibitors: Unexpected binding activity of cyclic thioamides” (Bioorg Med Chem Lett, 2020).
